The target in data set [1] is T1, 5-lipoxygenase (Homo sapiens, UniProt P09917).
T1 construct: The human polymorphonuclear leucocytes metabolize the arachidonic acid to give 5-hydroxy-5,8,11,14-eicosatetraenoic acid (5-HETE) and leucotriene B4; endogenous in cells; host or cells: human PMN leucocytes from heparinized whole blood
T1 sequence (P09917 1-674): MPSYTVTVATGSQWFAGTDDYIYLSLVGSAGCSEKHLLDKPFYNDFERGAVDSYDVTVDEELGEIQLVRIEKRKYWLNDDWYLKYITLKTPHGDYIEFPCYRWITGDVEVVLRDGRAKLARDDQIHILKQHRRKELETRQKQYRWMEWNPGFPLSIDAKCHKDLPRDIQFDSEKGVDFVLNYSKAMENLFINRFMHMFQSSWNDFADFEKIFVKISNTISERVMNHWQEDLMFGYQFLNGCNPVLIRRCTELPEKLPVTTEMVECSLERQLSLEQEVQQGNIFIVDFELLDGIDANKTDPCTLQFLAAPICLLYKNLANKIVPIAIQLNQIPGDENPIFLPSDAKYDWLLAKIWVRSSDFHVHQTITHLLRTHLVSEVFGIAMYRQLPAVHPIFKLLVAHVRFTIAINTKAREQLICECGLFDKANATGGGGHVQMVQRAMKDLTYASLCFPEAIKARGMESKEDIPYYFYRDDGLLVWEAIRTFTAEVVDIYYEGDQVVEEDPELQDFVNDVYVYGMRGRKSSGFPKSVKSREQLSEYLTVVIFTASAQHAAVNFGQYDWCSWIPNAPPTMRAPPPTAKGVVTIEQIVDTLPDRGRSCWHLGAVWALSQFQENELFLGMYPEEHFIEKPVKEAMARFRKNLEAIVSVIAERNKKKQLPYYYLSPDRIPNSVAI
As to the kind of experiment: Inhibition of LTB4 synthesis in human PMN leucocytes (A 23 187 stimulated). Type of data set: cell-based. The settings on record: for inhibition at 0.1 µg/mL: 0.1 μg/ml; for inhibition at 0.5 µg/mL: 0.5 μg/ml; for inhibition at 1 µg/mL: 1 μg/ml; for inhibition at 5 µg/mL: 5 μg/ml. Here is the method: The 5-lipoxygenase responsible for the biosynthesis of the leucotrienes B4, C4 and D4 is inhibited selectively at low concentrations. […] Inhibition of the liberation of 5-HETE and leucotriene B4 from the leucocytes constitutes a measure of the lipoxygenase-inhibiting effect of the compounds according to the invention (see Table 1). The test with the human leucocytes was carried out in accordance with Borgeat and Samuelsson (J. Biol. Chem. 254, 2643, 1979, and Proc. Natl. Acad. Sci. USA, 76, 2148, 1979). The human PMN leucocytes (>95%) used in the present example were obtained from heparinized whole blood by dextran sedimentation and subsequent density gradient separation (Ficoll-Paque) (see A. Boyum, Scand. J. Immunol., 5, Suppl. 5, 9, 1976). 2×10^7 cells/ml were suspended in Ca^2+ -containing Dulbecco phosphate buffer and stimulated in the presence and absence of lipoxygenase inhibitors, with the calcium ionophore A 23 187. After 15 minutes, the lipoxygenase products were extracted from the acidified incubation medium and separated by means of HPLC.

In data set [2] the test system is leucocyte stickiness. Briefly: Stickiness of leucocytes in hamster cheek pouch. Type of data set: in vivo, Male Syrian golden hamsters. The conditions noted are these: Effect after administration of 1 mg/kg i.a. An excerpt: The reduction in the leucocyte stickiness is also responsible for the decrease in ischaemic areas since, after treatment with the compounds to be used according to the invention, the leucocytes pass through the microcirculatory region of these areas without reducing the supply to the corresponding tissue by totally or temporarily closing small vessels or capillaries.
The number of leucocytes which pass through a certain section of a vessel serves as a simple model for measuring the stickiness of leucocytes (Bray, M. A. et al., Prostaglandins, 22, 213, 1981). The less sticky these cells are, the greater is the number of leucocytes counted.
Male Syrian golden hamsters (80-100 g) were anaesthetized with nembutal (i.p.; 60 mg/kg). After fixing a PE 10 catheter in the A.femoralis, the animal is laid on a Duling dissection stage (MVR 5, 423, 1973) and the right cheek pouch is drawn out by inserting a Q-tip. It is carefully drawn into that part of the stage which is intended for this purpose, and is stretched out and fixed. From the beginning of the preparation procedure, the prepared cheek pouch is rinsed over with 5 ml/minute of superfusate. The temperature of the solution is 36° C. While protecting the vessels, the upper layer of tissue is cut longitudinally and folded to the side. Under about 200 times magnification, an area of about 1 cm^2 of connective tissue is carefully exposed. The animal, together with the dissection stage, is placed on the microscope stage. A thermocouple is inserted into the left cheek pouch. The body temperature of the animal is monitored in this manner and maintained within +0.3° C. with the aid of an IR lamp (240 watt).
Measurement of the leucocyte stickiness is carried out under a magnification of about 500 times. A small vein (30-40 μm .phi.) is selected in the exposed area. Over a certain section of this vessel, the number of leucocytes passing by per unit time (min.) is counted.

The subject of data set [3] is cyclooxygenase. The conditions noted are these: known lipoxygenase inhibitors; cited from earlier work.
The conditions of data set [4]: administered systemically (for example orally); cited from earlier work.
Data set [5] concerns myocardial infarct. Briefly: Myocardial infarct after acute ligature of a coronary artery. Type of data set: in vivo. The conditions noted are these: dog. Here is the method:
The actions of various pyrazoledione derivatives on the experimental myocardial infarct in the dog were investigated after acute ligature of a coronary artery. In pentobarbital-anaesthetised dogs, the proximal left anterior descending coronary artery (LAD) […] occluded for 6 hours. The artery was not reperfused. One hour prior to ligature, the test compounds in 1% tyclose suspension were administered intraduodenally as a bolus. The same procedure was adopted for the controls, except that no active compound was administered. The size of the infarct and the area of perfusion of the LAD were determined biochemically by means of a dual perfusion method using Evans Blue and triphenyltetrazolium chloride. […] This could be observed both with respect to the absolute infarct weight and the infarct size relative to the weight of the left ventricule. Initially, the blood pressure decreased as a result of the coronary ligature, and this led to a reflectory increase in the heart rate.

Data on 16 compounds can be found in patent US4659732A, “Lipoxygenase inhibiting 1-arylalkyl-, 1-arylthio-, and 1-aryloxypyrazole-4,5-diones” (Bayer Aktiengesellschaft, priority 1984, dated 1987).

The structures appear in SMILES notation.

By inhibition is commonly meant the percentage by which the read-out fell short of the control. The low end stands for little suppression, the high end for strong suppression. Regarding `CC1=NN(CCOc2ccccc2)C(=O)C1=O` [Example 6], in data set [1], the inhibition at 0.1 µg/mL was 38%, testing at 0.5 µg/mL gave an inhibition of 60%, testing at 1 µg/mL gave an inhibition of 88% and the inhibition at 5 µg/mL came to 100%. Also, the “Inhibition of leucocyte stickiness” value in data set [2] is given as “no effect”.

For `CCCCCC=CCC=CCC=CCC=CCCCC(=O)O` [5,8,11,14-eicosatetraenoic acid], the cyclooxygenase inhibition entry in data set [3] is recorded as “act as cyclooxygenase inhibitors either simultaneously or only at very high concentrations”.

Consider `NC1=NN(c2cccc(C(F)(F)F)c2)CC1` [3-amino-1-(3-trifluoromethylphenyl)-2-pyrazoline], for which, in data set [3], the cyclooxygenase inhibition entry is reported as “act as cyclooxygenase inhibitors either simultaneously or only at very high concentrations”. In data set [4], the toxic side effects result is on record as “toxic side effects”.

Regarding `CC1=NN(C(C)c2ccc3c(c2)CCCC3)C(=O)C1=O` (stereo not drawn) [Example 7], in data set [1], 0.5 µg/mL produced 10% inhibition, the inhibition at 1 µg/mL turned out to be 21% and the inhibition at 5 µg/mL amounted to 100%. In data set [2], the “Inhibition of leucocyte stickiness” value is “inhibition”.

`CC(C)(C)C1=NN(CCOc2ccccc2)C(=O)C1=O` [Example 2] displayed an inhibition at 1 µg/mL in data set [1] of 12%. Moreover, the “Inhibition of leucocyte stickiness” value in data set [2] is recorded as “inhibition”.

`CC1=NN(CCOc2ccc3ccccc3c2)C(=O)C1=O` [Example 1, 3-Methyl-1-[2-(2-naphthyloxy)-ethyl]-2-pyrazole-4,5-dione]: in data set [1], the inhibition at 0.1 µg/mL turned out to be 29%, the inhibition at 0.5 µg/mL came out at 60%, the inhibition at 1 µg/mL was 85% and 5 µg/mL produced 100% inhibition. Further, in data set [2], the “Inhibition of leucocyte stickiness” value is given as “inhibition”.

In data set [1], `CC1=NN(C(C)c2cccc(C(F)(F)F)c2)C(=O)C1=O` (stereo not drawn) [Example 9] came in with an inhibition at 1 µg/mL of 40% and an inhibition at 5 µg/mL of 73%. Also, the “Inhibition of leucocyte stickiness” value in data set [2] is recorded as “no effect”.

Turning to `CCCC1=NN(CCOc2ccc3ccccc3c2)C(=O)C1=O` [Example 10], in data set [1], the inhibition at 0.5 µg/mL is 12%, at 1 µg/mL the inhibition was 56% and testing at 5 µg/mL gave an inhibition of 100%. The “Inhibition of leucocyte stickiness” value in data set [2] is listed as “inhibition”.

With `CC(Cc1ccc(O)c(O)c1)C(C)Cc1ccc(O)c(O)c1` (stereo not drawn) [nordihydroguaretic acid], the cyclooxygenase inhibition result in data set [3] is reported as “act as cyclooxygenase inhibitors either simultaneously or only at very high concentrations”.

In data set [1], `COCC1=NN(CCOc2ccc3ccccc3c2)C(=O)C1=O` [Example 4] displayed an inhibition at 0.1 µg/mL of 15%, an inhibition at 0.5 µg/mL of 47%, an inhibition at 1 µg/mL of 60% and an inhibition at 5 µg/mL of 100%. Besides, the “Inhibition of leucocyte stickiness” value in data set [2] is listed as “inhibition”.

For the compound `O=C1CCN(c2ccccc2)N1` [phenidone], in data set [3], the cyclooxygenase inhibition entry is “act as cyclooxygenase inhibitors either simultaneously or only at very high concentrations”.

In data set [1], `O=C1C(=O)N(CCOc2ccc3ccccc3c2)N=C1CC1CCCCC1` [Example 8] displayed an inhibition at 0.5 µg/mL of 10%, an inhibition at 1 µg/mL of 35% and an inhibition at 5 µg/mL of 100%. Moreover, the “Inhibition of leucocyte stickiness” value in data set [2] is on record as “no action”.

In data set [1], `CC1=NN(C(C)c2ccc(Cl)c(Cl)c2)C(=O)C1=O` (stereo not drawn) [Example 5] showed an inhibition at 0.5 µg/mL of 12%, an inhibition at 1 µg/mL of 29% and an inhibition at 5 µg/mL of 84%. The “Inhibition of leucocyte stickiness” value in data set [2] is on record as “no action”.

Turning to `CC1=NN(C(C)C2CCCCC2)C(=O)C1=O` (stereo not drawn) [Example 11], in data set [1], 1 µg/mL produced 29% inhibition and testing at 5 µg/mL gave an inhibition of 32%. The “Inhibition of leucocyte stickiness” value in data set [2] is reported as “inhibition”.

In data set [1], `COCC1=NN(C(C)c2ccc(Cl)c(Cl)c2)C(=O)C1=O` (stereo not drawn) [Example 3] returned an inhibition at 0.1 µg/mL of 6%, an inhibition at 0.5 µg/mL of 20%, an inhibition at 1 µg/mL of 37% and an inhibition at 5 µg/mL of 100%. Also, the “Inhibition of leucocyte stickiness” value in data set [2] was “no effect”.

On to `C1=CSc2ccccc2N1` [4H-1,4-benzothiazine], for which, in data set [5] (LAD ligature, intraduodenal), the haemodynamic effects result is listed as “no haemodynamic effects”. For the same compound, the infarct size result in data set [5] (gradual LAD occlusion 6 hours, intraduodenal bolus one hour prior to ligature, absolute infarct weight and relative to left ventricle weight) was “substantially reduced the infarct size”.
